Measured values taken from US10585102B2, “Characterization of cancer using detection of activated leukocyte cell adhesion molecule (ALCAM) shedding” (Vanderbilt University, priority 2012, dated 2020).
Read-outs that look alike come from different tables or passages of the source.

Legend:
[1] = tested on: Rap1A; assay: Rap1 activation assay (GTP-bound Rap1A pull-down, immunoblot); type: cell-based; conditions: HEp3 cells; PKCα inhibited by pharmacological means
Method: Rap1 activation was analyzed using the Rap1 activation kit (Chemicon). All treatments were performed in the presence of serum free/insulin free media. Cells to be assayed were washed with ice cold PBS and lysed in RIPA like Rap1 buffer (10% glycerol, 50 mM Tris/HCl, 150 mM NaCl, 5 mM phenylmethylsulfonyl fluoride, 1 mM sodium orthovanadate). The lysates were pushed through a 25 gauge syringe and cleared by centrifugation at max speed at 4 degrees for 10 min. Equal amounts of lysates were immunoprecipitated with Ra1GDS RBD conjugated agarose beads for 45 minutes at 4° C. After washing the beads where resuspended with sample buffer and boiled for 5 minutes. The immunoprecipitates were separated by SDS-Page as mentioned above, transferred to PVDF membranes, probed with the anti-Rap1 antibody and horse radish peroxidase-conjugated secondary antibody. After washing the membranes were developed by autoradiography.
To evaluate whether Rap1A was activated in response to CD151 clustering as well as ALCAM-ALCAM ligation, HEp3 cells were treated with 1A5 or seeded on ALCAM-FC for up to 48 hrs. Active Rap1A in the cells was evaluated by immunblotting of GTP-bound Rap1A affinity purified from lysates with Ra1-GDS beads.

[2] = tested on: HEp3 cells; assay: Transwell migration with pathway inhibitors, with or without anti-CD151 antibody 1A5; type: cell-based, human
Method: In Vitro Transwell Migration: Tumor cells in a single cell suspension were plated into the top chamber of 8 μm transwell (Costar) inserts in the presence of serum free/insulin free media. Cell culture media containing 10% fetal bovine serum was placed in the bottom chamber to serve as a chemoattractant. Migration assays were carried out for 12 hrs in a 37° C. cell culture incubator containing 5% CO2. The top surface of the inserts was cleaned with a cotton swab soaked with PBS to remove the non-migrated cells. The transwell inserts were subsequently fixed in methanol and stained with 0.2% crystal violet. The number of migrated cells was counted in 3 independent fields under 20× magnification with a light microscope.
Transwell migration assays were performed in the presence or absence of each inhibitor together with or without the anti-CD151 antibody 1A5.

[3] = tested on: PC3 cells; assay: ALCAM expression in response to TGFβ (RT-PCR, Western blot); type: cell-based, human
Method: (§1) SDS-PAGE and immunoblotting. Cells (2.5×10^5) were plated in 6-well dishes. After 24 h, cells were serum starved in Opti-MEM for 16 h and then treated in the presence or absence of indicated growth factors or inhibitors, for 48 h. After that, the cells were lysed in TNE Lysis Buffer (20 mM Tris-Cl [pH 7.4], 0.5 mM EDTA, 1% Triton X-100, 150 mM NaCl, protease inhibitor cocktail (sigma), 1 mM phenylmethylsulfonyl fluoride). Total protein in the lysates was quantified using BCA assay (BioRad). Conditioned media samples were concentrated with microcon centrifugal filters (Millipore) following manufacturers protocol, which were eluted directly in 5× sample buffer for Western blot analysis. Protein loading for conditioned-medium samples for Western blot analysis was adjusted according to the total protein in cell lysates. Conditioned media and total protein was subjected to SDS-PAGE and electrophoretic transfer to polyvinylidene difluoride membranes (Immobilon P, Millipore, Inc., Bedford, Mass.). Immunodetection was done by conventional chemiluminescence
(§2) The mRNA samples were prepared from tumor cells lysed in TRI Reagent (Ambion) and purified using phenol extraction, followed by real-time polymerase chain reaction (RT-PCR). The following qPCR primers were used ALCAM, […] (forward) and […] (reverse); ADAM17, […] (forward) and […] (reverse); and glyceraldehyde-3-phosphate dehydrogenase, […] (forward) and TTCCCCATGGTGTCTGAGC (reverse).
(§3) ALCAM is proteolytically shed from PC3 cells (FIG. 21). Absence of the cytoplasmic tail confirms that the ectodomain is shed (FIG. 21A). Moreover, ALCAM is absent from PC3-derived exosomes ensuring that the ectodomain is shed and not released with cell-derived microparticles (FIG. 21B). Since prostate cancer disseminates predominantly to bone we selected cytokines thought to be involved in this process, including TGFβ. […] To further explore the response to exogenous stimulation with TGFβ, ALCAM expression in PC3 cells was compared to ALCAM expression in LNCaP cells which are unable to respond to the cytokine because they lack TGFβ receptor type I (FIGS. 23B and 23C). […] TGFβ-induced expression in PC3 cells could be abrogated with the small molecule inhibitor SB431542 (FIG. 23D, 10 μm; Sigma) while TGFβ-induced ALCAM mRNA and protein expression could be restored in LNCaP cells when the cells were transfected with dominant-active TGFβ receptor type I (FIGS. 23E and 23F).

[4] = tested on: PC3 cells; assay: ALCAM shedding in conditioned media of cytokine-treated cells (ELISA); type: cell-based, human; conditions: PC3 concentrated conditioned media; 8 agents tested
[5] = tested on: LNCaP cells; assay: ALCAM expression in response to TGFβ (RT-PCR, Western blot); type: cell-based, human; conditions: lack TGFβ receptor type I
Method: as §1, §2, §3

[6] = In vivo ALCAM serum half-life; conditions: serum injected retrorbitally in ALCAM KO mice; ELISA
Method: Serum was harvested from ALCAM wild-type, mixed background, mice and pooled. Combined serum collected from WT mice was injected retrorbitally in ALCAM KO mice (100 μl/mouse). ALCAM KO mice were pre-bled via saphenous vein bleed, and then bled at 10 mins, 2 hours, 4 hours, 24 hours and 48 hours (n=2/time point; total n=10). WT pooled serum was used as ELISA control to quantitatively determine ALCAM serum half-life.
To determine if tumor-derived ALCAM is the source of elevated circulating ALCAM, species-specific antibodies were used to monitor circulating levels of both host (mouse) ALCAM and tumor (human) ALCAM longitudinally during orthotopic and subcutaneous growth of PC3 cells (FIG. 24). The half-life of human ALCAM in the circulation of its mouse host was determined to confirm that tumor-derived ALCAM could act as a stable biomarker in vivo (FIG. 25).

[7] = HEp3 cells, ± anti-CD151 antibody 1A5

COc1ccc2c(c[n+](C)c3c4cc5c(cc4ccc23)OCO5)c1OC [Chelerythrin]
Rap1A activation by 1A5 after PKCα disruption [1]: 1A5 was unable to promote Rap1A activation
Transwell migration in the presence or absence of inhibitor, with or without 1A5 [2, 7]: allowed for migration of untreated cells but prevented 1A5 from inhibiting migration

COC(=O)[C@H](CC(C)C)NC(=O)c1ccc(NC[C@@H](N)CS)cc1-c1cccc2ccccc12 [GGTI-298]
Transwell migration in the presence or absence of inhibitor, with or without 1A5 [2, 7]: allowed for migration of untreated cells but prevented 1A5 from inhibiting migration

NC(=O)c1ccc(-c2nc(-c3ccc4c(c3)OCO4)c(-c3ccccn3)[nH]2)cc1 [SB431542]
TGFβ-induced ALCAM expression ([3]; 10 μm inhibitor, 10 ng/ml TGFβ, 48 hrs): abrogated

N#CC(=C(/N)Sc1ccccc1N)/C(C#N)=C(\N)Sc1ccccc1N [U0126]
Transwell migration in the presence or absence of inhibitor, with or without 1A5 [2]: inhibited migration independent of anti-CD151 antibody treatment

TGFβ
ALCAM shedding [4]: promoted ALCAM shedding relative to overall total protein increase
ALCAM gene transcription (quantitative RT-PCR) ([3]; 10 ng/ml TGFβ, 48 hrs): able to induce ALCAM gene transcription in PC3
ALCAM protein expression and ectodomain shedding (Western blot) ([3]; cell lysate and conditioned media): increased levels of ALCAM protein expression and ectodomain shedding
response of ALCAM expression to TGFβ [5]: did not respond

B1: ALCAM: circulating soluble Activated Leukocyte Cell Adhesion Molecule (shed ectodomain) in serum (protein, UniProt Q13740 28-527, looked up)
extracellular domain: WYTVNSAYGDTIIIPCRLDVPQNLMFGKWKYEKPDGSPVFIAFRSSTKKSVQYDDVPEYKDRLNLSENYTLSISNARISDEKRFVCMLVTEDNVFEAPTIVKVFKQPSKPEIVSKALFLETEQLKKLGDCISEDSYPDGNITWYRNGKVLHPLEGAVVIIFKKEMDPVTQLYTMTSTLEYKTTKADIQMPFTCSVTYYGPSGQKTIHSEQAVFDIYYPTEQVTIQVLPPKNAIKEGDNITLKCLGNGNPPPEEFLFYLPGQPEGIRSSNTYTLTDVRRNATGDYKCSLIDKKSMIASTAITVHYLDLSLNPSGEVTRQIGDALPVSCTISASRNATVVWMKDNIRLRSSPSFSSLHYQDAGNYVCETALQEVEGLKKRESLTLIVEGKPQIKMTKKTDPSGLSKTIICHVEGFPKPAIQWTITGSGSVINQTEESPYINGRYYSKIIISPEENVTLTCTAENQLERTVNSLNVSAISIPEHDEADEISDENREKVNDQAK
modifications: extracellular domain shed soluble form
half-life in circulation [6]: 17 h
